Literature values in patent US20120114757A1, “PARTICLES COMPRISING DROSPIRENONE ENCAPSULATED IN A POLYMER” (BAYER PHARMA AKTIENGESELLSCHAFT, priority 2009, published 2012).

stability under acid conditions (acid conditions): rearranged to an inactive isomer
solubility in water and aqueous buffers (various pH values): sparingly soluble
SMILES: C[C@]12CCC(=O)C=C1[C@@H]1C[C@@H]1[C@H]1[C@@H]3[C@@H]4C[C@@H]4[C@@]4(CCC(=O)O4)[C@@]3(C)CC[C@@H]12 [Drospirenone, 6β,7β;15β,16β-dimethylene-3-oxo-17α-pregn-4-ene-21,17-carbolactone]
